Experimental data as given in ChEMBL document CHEMBL1201862, “PubChem BioAssay data set” (2004).
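1) Cells in 96-well plates. 2) Compound, 48 h, 5 concentrations. 3) Linear interpolation between surrounding doses. 4) Unreached endpoint = highest concentration. The concentration for 50% growth inhibition is given as GI50.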 Calls of active or inactive are those of the source. No stated cut-off is given here; in the data, active = GI50 up to about 1.1 µM and inactive = higher.

How the values were obtained:
Assay in all cases: growth of human tumour cells (NCI), 48 h
[1] = tested on: 786-0
[2] = tested on: A549
[3] = tested on: ACHN
[4] = tested on: CCRF-CEM
[5] = tested on: DLD-1
[6] = tested on: DMS-114
[7] = tested on: DMS-273
[8] = tested on: HCT-116
[9] = tested on: HCT-15
[10] = tested on: HL-60
[11] = tested on: HOP-18
[12] = tested on: HT-29
[13] = tested on: IGROV-1
[14] = tested on: K562
[15] = tested on: KM12
[16] = tested on: LOX IMVI
[17] = tested on: LXFL 529
[18] = tested on: M14
[19] = tested on: M19-MEL
[20] = tested on: MOLT-4
[21] = tested on: Malme-3M
[22] = tested on: NCI-H226
[23] = tested on: NCI-H23
[24] = tested on: NCI-H460
[25] = tested on: NCI-H522
[26] = tested on: OVCAR-3
[27] = tested on: OVCAR-4
[28] = tested on: OVCAR-8
[29] = tested on: RXF 393
[30] = tested on: SF-268
[31] = tested on: SF-295
[32] = tested on: SF-539
[33] = tested on: SK-MEL-28
[34] = tested on: SK-MEL-2
[35] = tested on: SK-MEL-5
[36] = tested on: SK-OV-3
[37] = tested on: SN12C
[38] = tested on: SNB-19
[39] = tested on: SNB-75
[40] = tested on: SNB-78
[41] = tested on: TK-10
[42] = tested on: UACC-257
[43] = tested on: UACC-62
[44] = tested on: XF498
[45] = tested on: A498
[46] = tested on: COLO 205
[47] = tested on: EKVX
[48] = tested on: HCC 2998
[49] = tested on: HOP-62
[50] = tested on: HOP-92
[51] = tested on: KM-20L2
[52] = tested on: OVCAR-5
[53] = tested on: RPMI-8226
[54] = tested on: SR
[55] = tested on: SW-620
[56] = tested on: U-251
[57] = tested on: UO-31
[58] = tested on: CAKI-1
[59] = tested on: MCF7
[60] = tested on: NCI/ADR-RES

COP12(OC)NC(=O)OC1(C(F)(F)F)c1ccccc1O2 (stereo not given)
GI50 [1]: > 100 µM (inactive)
GI50 [2]: > 100 µM (inactive)
GI50 [3]: > 100 µM (inactive)
GI50 [4]: > 100 µM (inactive)
GI50 [5]: > 100 µM (inactive)
GI50 [6]: > 100 µM (inactive)
GI50 [7]: > 100 µM (inactive)
GI50 [8]: > 100 µM (inactive)
GI50 [9]: > 100 µM
GI50 [10]: > 100 µM (inactive)
GI50 [11]: 52.7 µM (inactive)
GI50 [12]: > 100 µM (inactive)
GI50 [13]: > 100 µM (inactive)
GI50 [14]: > 100 µM (inactive)
GI50 [15]: > 100 µM (inactive)
GI50 [16]: > 100 µM (inactive)
GI50 [17]: > 100 µM (inactive)
GI50 [18]: > 100 µM (inactive)
GI50 [19]: > 100 µM (inactive)
GI50 [20]: > 100 µM (inactive)
GI50 [21]: > 100 µM (inactive)
GI50 [22]: > 100 µM (inactive)
GI50 [23]: > 100 µM (inactive)
GI50 [24]: > 100 µM (inactive)
GI50 [25]: > 100 µM (inactive)
GI50 [26]: > 100 µM (inactive)
GI50 [27]: > 100 µM (inactive)
GI50 [28]: > 100 µM (inactive)
GI50 [29]: > 100 µM (inactive)
GI50 [30]: > 100 µM (inactive)
GI50 [31]: > 100 µM (inactive)
GI50 [32]: > 100 µM (inactive)
GI50 [33]: > 100 µM (inactive)
GI50 [34]: > 100 µM (inactive)
GI50 [35]: > 100 µM (inactive)
GI50 [36]: > 100 µM (inactive)
GI50 [37]: > 100 µM (inactive)
GI50 [38]: > 100 µM (inactive)
GI50 [39]: 44.9 µM (inactive)
GI50 [40]: > 100 µM (inactive)
GI50 [41]: > 100 µM (inactive)
GI50 [42]: > 100 µM (inactive)
GI50 [43]: > 100 µM (inactive)
GI50 [44]: > 100 µM (inactive)

CCCCc1c2c(nc3c1CCCC3O)/C(=C/c1ccccc1)CCC2 (stereo not given)
GI50 [1]: 22.3 µM (inactive)
GI50 [45]: 54.1 µM (inactive)
GI50 [2]: 49.5 µM (inactive)
GI50 [3]: 34.8 µM (inactive)
GI50 [4]: 15.9 µM (inactive)
GI50 [46]: 17.9 µM (inactive)
GI50 [6]: 22.9 µM (inactive)
GI50 [7]: 20.7 µM (inactive)
GI50 [47]: 29.6 µM (inactive)
GI50 [48]: 9.84 µM (inactive)
GI50 [8]: 36.6 µM (inactive)
GI50 [9]: 16 µM
GI50 [10]: 17.3 µM (inactive)
GI50 [11]: 24.4 µM (inactive)
GI50 [49]: 36.5 µM (inactive)
GI50 [50]: 38.7 µM (inactive)
GI50 [12]: 22.1 µM (inactive)
GI50 [13]: 45.8 µM (inactive)
GI50 [14]: 11.4 µM (inactive)
GI50 [51]: 35.2 µM (inactive)
GI50 [15]: 18.7 µM (inactive)
GI50 [16]: 19.7 µM (inactive)
GI50 [17]: 34.1 µM (inactive)
GI50 [18]: 23.1 µM (inactive)
GI50 [19]: 23.1 µM (inactive)
GI50 [20]: 11.6 µM (inactive)
GI50 [21]: 20.2 µM (inactive)
GI50 [22]: 26.1 µM (inactive)
GI50 [23]: 27.3 µM (inactive)
GI50 [24]: 17.1 µM (inactive)
GI50 [25]: 21.7 µM (inactive)
GI50 [26]: 18.7 µM (inactive)
GI50 [27]: 63.7 µM (inactive)
GI50 [52]: 32.8 µM (inactive)
GI50 [28]: 32 µM (inactive)
GI50 [53]: 16.8 µM (inactive)
GI50 [29]: 39.9 µM (inactive)
GI50 [30]: 31.3 µM (inactive)
GI50 [31]: 42.3 µM (inactive)
GI50 [32]: 28.1 µM (inactive)
GI50 [33]: 33.5 µM (inactive)
GI50 [34]: 24.8 µM (inactive)
GI50 [35]: 21.7 µM (inactive)
GI50 [36]: 38.5 µM (inactive)
GI50 [37]: 23.2 µM (inactive)
GI50 [38]: 43.1 µM (inactive)
GI50 [39]: 35.3 µM (inactive)
GI50 [40]: 56 µM (inactive)
GI50 [54]: 14 µM (inactive)
GI50 [55]: 26.2 µM (inactive)
GI50 [41]: 26.9 µM (inactive)
GI50 [56]: 28 µM (inactive)
GI50 [42]: 30 µM (inactive)
GI50 [43]: 33.8 µM (inactive)
GI50 [57]: 42.9 µM (inactive)
GI50 [44]: 13.2 µM (inactive)

COc1ccc(-c2csc(=[N+]3CCCCC3)s2)cc1
GI50 [1]: 4.83 µM (inactive)
GI50 [2]: 1.94 µM (inactive)
GI50 [3]: 9.44 µM (inactive)
GI50 [58]: 2.36 µM (inactive)
GI50 [4]: 1.62 µM (inactive)
GI50 [46]: 1.49 µM (inactive)
GI50 [5]: 4.79 µM (inactive)
GI50 [7]: 3.27 µM (inactive)
GI50 [47]: 6.76 µM (inactive)
GI50 [48]: 3.85 µM (inactive)
GI50 [8]: 4.42 µM (inactive)
GI50 [9]: 47.3 µM
GI50 [10]: 2.29 µM (inactive)
GI50 [11]: 5.15 µM (inactive)
GI50 [49]: 2.54 µM (inactive)
GI50 [50]: 2.38 µM (inactive)
GI50 [12]: 3.01 µM (inactive)
GI50 [13]: 4.54 µM (inactive)
GI50 [14]: 2.23 µM (inactive)
GI50 [51]: 2.66 µM (inactive)
GI50 [15]: 2.36 µM (inactive)
GI50 [16]: 4.83 µM (inactive)
GI50 [17]: 3.07 µM (inactive)
GI50 [18]: 10.9 µM (inactive)
GI50 [19]: 2.61 µM (inactive)
GI50 [20]: 2.53 µM (inactive)
GI50 [21]: 2.76 µM (inactive)
GI50 [22]: 2.92 µM (inactive)
GI50 [23]: 1.63 µM (inactive)
GI50 [24]: 3.71 µM (inactive)
GI50 [25]: 1.72 µM (inactive)
GI50 [26]: 3.92 µM (inactive)
GI50 [27]: 4.48 µM (inactive)
GI50 [52]: 8.83 µM (inactive)
GI50 [28]: 3.05 µM (inactive)
GI50 [53]: 2.11 µM (inactive)
GI50 [29]: 4.14 µM (inactive)
GI50 [30]: 1.42 µM (inactive)
GI50 [31]: 1.98 µM (inactive)
GI50 [32]: 4.56 µM (inactive)
GI50 [33]: 6 µM (inactive)
GI50 [34]: 3.63 µM (inactive)
GI50 [35]: 1.87 µM (inactive)
GI50 [36]: 3.41 µM (inactive)
GI50 [37]: 3.61 µM (inactive)
GI50 [38]: 1.67 µM (inactive)
GI50 [39]: 1.23 µM (inactive)
GI50 [40]: 3.58 µM (inactive)
GI50 [54]: 2.26 µM (inactive)
GI50 [55]: 2.88 µM (inactive)
GI50 [41]: 29.3 µM (inactive)
GI50 [56]: 0.743 µM (active)
GI50 [42]: 3.34 µM (inactive)
GI50 [43]: 7.78 µM (inactive)
GI50 [57]: > 100 µM (inactive)
GI50 [44]: 4.05 µM (inactive)

COC(=O)C[C@](O)(CCC(C)(C)O)C(=O)O[C@@H]1C(OC)=C[C@]23CCCN2CCc2cc4c(cc2[C@H]13)OCO4 [HARRINGTONINE]
GI50 [45]: 0.073 µM (active)
GI50 [2]: 0.0579 µM (active)
GI50 [58]: 0.193 µM (active)
GI50 [4]: 0.0508 µM (active)
GI50 [46]: 0.0977 µM (active)
GI50 [5]: 0.121 µM (active)
GI50 [6]: 0.0152 µM (active)
GI50 [7]: 0.0288 µM (active)
GI50 [47]: 0.0802 µM (active)
GI50 [48]: 0.0239 µM (active)
GI50 [8]: 0.0336 µM (active)
GI50 [9]: 0.379 µM
GI50 [10]: 0.0403 µM (active)
GI50 [11]: 0.229 µM (active)
GI50 [49]: 0.166 µM (active)
GI50 [50]: 0.164 µM (active)
GI50 [12]: 0.0661 µM (active)
GI50 [13]: 0.0505 µM (active)
GI50 [14]: 0.05 µM (active)
GI50 [51]: 0.0843 µM (active)
GI50 [15]: 0.0693 µM (active)
GI50 [16]: 0.047 µM (active)
GI50 [19]: 0.107 µM (active)
GI50 [59]: 0.0288 µM (active)
GI50 [20]: 0.0333 µM (active)
GI50 [21]: 0.0284 µM (active)
GI50 [22]: 0.0306 µM (active)
GI50 [23]: 0.0863 µM (active)
GI50 [24]: < 0.0182 µM (active)
GI50 [25]: 0.0206 µM (active)
GI50 [60]: 7.74 µM (inactive)
GI50 [26]: 0.0598 µM (active)
GI50 [27]: 0.0785 µM (active)
GI50 [52]: 0.233 µM (active)
GI50 [28]: 0.16 µM (active)
GI50 [53]: 0.0566 µM (active)
GI50 [29]: 0.103 µM (active)
GI50 [30]: 0.148 µM (active)
GI50 [31]: 0.186 µM (active)
GI50 [32]: 0.0295 µM (active)
GI50 [33]: 0.0593 µM (active)
GI50 [34]: 0.0989 µM (active)
GI50 [35]: 0.0557 µM (active)
GI50 [36]: 0.0984 µM (active)
GI50 [37]: 0.212 µM (active)
GI50 [38]: 0.0509 µM (active)
GI50 [39]: 0.209 µM (active)
GI50 [40]: 0.256 µM (active)
GI50 [55]: 0.119 µM (active)
GI50 [56]: 0.0515 µM (active)
GI50 [42]: 0.158 µM (active)
GI50 [43]: 0.23 µM (active)
GI50 [57]: 1.7 µM (inactive)
GI50 [44]: < 0.01 µM (active)
